Measurements taken from ChEMBL document CHEMBL4043225, “Identification of potent, nonabsorbable agonists of the calcium-sensing receptor for GI-specific administration” (Bioorg Med Chem Lett, 2017).

Legend:
[1] = molecular target: T1, Extracellular calcium-sensing receptor (Homo sapiens) (UniProt P41180); assay: (§1) Agonist activity at human CaSR expressed in HEK293 cells assessed as increase in intracellular calcium mobilization by fluo-4AM dye based FLIPR assay; format: functional, cell-based
T1 sequence (whole entry): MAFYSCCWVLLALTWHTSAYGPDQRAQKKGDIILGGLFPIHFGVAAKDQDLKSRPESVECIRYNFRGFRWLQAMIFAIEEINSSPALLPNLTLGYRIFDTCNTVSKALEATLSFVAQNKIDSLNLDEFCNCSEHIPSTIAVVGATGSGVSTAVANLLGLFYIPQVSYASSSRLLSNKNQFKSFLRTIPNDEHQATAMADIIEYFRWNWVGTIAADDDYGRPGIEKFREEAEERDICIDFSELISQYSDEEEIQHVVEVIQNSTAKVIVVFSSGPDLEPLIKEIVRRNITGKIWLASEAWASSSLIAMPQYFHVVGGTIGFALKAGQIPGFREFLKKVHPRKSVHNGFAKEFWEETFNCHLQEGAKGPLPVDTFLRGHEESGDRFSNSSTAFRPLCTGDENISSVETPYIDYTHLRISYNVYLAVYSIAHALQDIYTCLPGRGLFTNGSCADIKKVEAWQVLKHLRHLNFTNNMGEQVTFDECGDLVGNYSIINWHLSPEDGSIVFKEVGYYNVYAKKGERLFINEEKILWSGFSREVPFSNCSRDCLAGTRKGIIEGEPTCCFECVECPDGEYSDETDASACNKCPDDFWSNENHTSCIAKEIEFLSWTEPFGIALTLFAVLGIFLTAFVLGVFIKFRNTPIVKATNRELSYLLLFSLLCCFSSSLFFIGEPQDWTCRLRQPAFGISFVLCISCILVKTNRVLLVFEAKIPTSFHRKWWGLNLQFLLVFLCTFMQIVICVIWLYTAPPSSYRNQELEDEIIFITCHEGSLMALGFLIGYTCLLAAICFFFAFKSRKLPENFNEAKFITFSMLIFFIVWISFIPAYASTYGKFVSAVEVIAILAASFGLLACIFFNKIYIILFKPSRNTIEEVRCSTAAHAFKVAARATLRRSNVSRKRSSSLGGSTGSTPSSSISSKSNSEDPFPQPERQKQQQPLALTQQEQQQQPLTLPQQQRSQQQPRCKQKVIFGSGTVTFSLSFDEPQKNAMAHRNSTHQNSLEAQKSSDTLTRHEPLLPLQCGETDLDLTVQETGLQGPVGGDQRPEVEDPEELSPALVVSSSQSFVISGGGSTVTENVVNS

[2] = molecular target: T2, Extracellular calcium-sensing receptor (Homo sapiens, UniProt P41180); assay: as §1; format: functional, cell-based
T2 sequence (P41180 whole entry): T1 sequence (whole entry)

[3] = Half-life in Sprague-Dawley rat cecal homogenates at 10 uM by LC-MS/MS analysis; format: ADME, tissue-based, Caecum
[4] = Drug recovery in CD rat feces at 30 mg/kg, po administered via gavage measured by LC-MS/MS analysis; format: ADME, organism-based; conditions: read-out: Drug recovery
[5] = Cmax in CD rat portal vein at 30 mg/kg, po administered via gavage; format: ADME, organism-based; parameters: dose 30 mg/kg, route oral
[6] = Cmax in CD rat systemic circulation at 30 mg/kg, po administered via gavage; format: ADME, organism-based; parameters: dose 30 mg/kg, route oral
[7] = Cmax in CD rat systemic circulation at 50 mg/kg, po administered via gavage; format: ADME, organism-based; parameters: dose 50 mg/kg, route oral
[8] = Cmax in CD rat portal vein at 50 mg/kg, po administered via gavage; format: ADME, organism-based; parameters: dose 50 mg/kg, route oral
[9] = AUC in CD rat portal vein at 10 mg/kg, po administered via gavage; format: ADME, organism-based
[10] = test system: Rattus norvegicus; assay: Unbound Cmax in CD rat systemic circulation at 10 mg/kg, po administered via gavage; format: ADME, organism-based; conditions: in vivo
[11] = test system: Rattus norvegicus; assay: Unbound Cmax in CD rat portal vein at 10 mg/kg, po administered via gavage; format: ADME, organism-based; conditions: in vivo
[12] = Aqueous solubility of the compound in FESSIF; format: physicochemical
[13] = Aqueous solubility of the compound in FASSIF; format: physicochemical
[14] = Aqueous solubility of the compound in SGF; format: physicochemical
[15] = molecular target: T3, Extracellular calcium-sensing receptor (Mus musculus, UniProt Q9QY96); assay: (§2) Agonist activity at mouse CaSR expressed in HEK293 cells assessed as increase in intracellular calcium mobilization by fluo-4AM dye based FLIPR assay; format: functional, cell-based
T3 sequence (Q9QY96 whole entry): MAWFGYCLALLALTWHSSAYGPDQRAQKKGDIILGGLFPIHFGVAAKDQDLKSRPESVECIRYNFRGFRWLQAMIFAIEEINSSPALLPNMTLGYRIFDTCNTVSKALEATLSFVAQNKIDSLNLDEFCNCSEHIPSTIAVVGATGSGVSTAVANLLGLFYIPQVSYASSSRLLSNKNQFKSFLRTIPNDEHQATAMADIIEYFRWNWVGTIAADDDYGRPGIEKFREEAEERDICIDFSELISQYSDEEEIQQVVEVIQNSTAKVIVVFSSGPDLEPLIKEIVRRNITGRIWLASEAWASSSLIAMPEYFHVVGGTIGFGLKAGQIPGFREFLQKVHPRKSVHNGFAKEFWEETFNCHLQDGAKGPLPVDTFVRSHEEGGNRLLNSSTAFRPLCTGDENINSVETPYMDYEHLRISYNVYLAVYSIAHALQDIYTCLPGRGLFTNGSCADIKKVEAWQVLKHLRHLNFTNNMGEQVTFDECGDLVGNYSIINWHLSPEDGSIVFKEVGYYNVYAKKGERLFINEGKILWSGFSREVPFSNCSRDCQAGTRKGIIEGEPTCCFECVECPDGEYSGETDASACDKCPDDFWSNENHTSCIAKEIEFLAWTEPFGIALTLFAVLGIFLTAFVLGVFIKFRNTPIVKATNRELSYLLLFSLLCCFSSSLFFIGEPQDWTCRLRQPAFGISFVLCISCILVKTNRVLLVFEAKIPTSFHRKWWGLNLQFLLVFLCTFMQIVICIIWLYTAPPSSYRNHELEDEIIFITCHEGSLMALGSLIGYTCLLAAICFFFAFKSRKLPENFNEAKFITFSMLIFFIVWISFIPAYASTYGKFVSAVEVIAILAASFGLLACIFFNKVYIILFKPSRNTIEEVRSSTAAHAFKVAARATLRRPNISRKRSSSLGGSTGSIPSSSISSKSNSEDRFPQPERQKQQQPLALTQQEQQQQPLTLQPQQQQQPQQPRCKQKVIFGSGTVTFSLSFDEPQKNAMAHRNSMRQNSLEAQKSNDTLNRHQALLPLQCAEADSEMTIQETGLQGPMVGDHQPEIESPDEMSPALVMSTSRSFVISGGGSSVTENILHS

[16] = molecular target: T4, Extracellular calcium-sensing receptor (Mus musculus) (UniProt Q9QY96); assay: as §2; format: functional, cell-based
T4 sequence (whole entry): T3 sequence (Q9QY96 whole entry)

[17] = molecular target: T5, Extracellular calcium-sensing receptor (Rattus norvegicus) (UniProt P48442); assay: (§3) Agonist activity at rat CaSR expressed in HEK293 cells assessed as increase in intracellular calcium mobilization by fluo-4AM dye based FLIPR assay; format: functional, cell-based
T5 sequence (whole entry): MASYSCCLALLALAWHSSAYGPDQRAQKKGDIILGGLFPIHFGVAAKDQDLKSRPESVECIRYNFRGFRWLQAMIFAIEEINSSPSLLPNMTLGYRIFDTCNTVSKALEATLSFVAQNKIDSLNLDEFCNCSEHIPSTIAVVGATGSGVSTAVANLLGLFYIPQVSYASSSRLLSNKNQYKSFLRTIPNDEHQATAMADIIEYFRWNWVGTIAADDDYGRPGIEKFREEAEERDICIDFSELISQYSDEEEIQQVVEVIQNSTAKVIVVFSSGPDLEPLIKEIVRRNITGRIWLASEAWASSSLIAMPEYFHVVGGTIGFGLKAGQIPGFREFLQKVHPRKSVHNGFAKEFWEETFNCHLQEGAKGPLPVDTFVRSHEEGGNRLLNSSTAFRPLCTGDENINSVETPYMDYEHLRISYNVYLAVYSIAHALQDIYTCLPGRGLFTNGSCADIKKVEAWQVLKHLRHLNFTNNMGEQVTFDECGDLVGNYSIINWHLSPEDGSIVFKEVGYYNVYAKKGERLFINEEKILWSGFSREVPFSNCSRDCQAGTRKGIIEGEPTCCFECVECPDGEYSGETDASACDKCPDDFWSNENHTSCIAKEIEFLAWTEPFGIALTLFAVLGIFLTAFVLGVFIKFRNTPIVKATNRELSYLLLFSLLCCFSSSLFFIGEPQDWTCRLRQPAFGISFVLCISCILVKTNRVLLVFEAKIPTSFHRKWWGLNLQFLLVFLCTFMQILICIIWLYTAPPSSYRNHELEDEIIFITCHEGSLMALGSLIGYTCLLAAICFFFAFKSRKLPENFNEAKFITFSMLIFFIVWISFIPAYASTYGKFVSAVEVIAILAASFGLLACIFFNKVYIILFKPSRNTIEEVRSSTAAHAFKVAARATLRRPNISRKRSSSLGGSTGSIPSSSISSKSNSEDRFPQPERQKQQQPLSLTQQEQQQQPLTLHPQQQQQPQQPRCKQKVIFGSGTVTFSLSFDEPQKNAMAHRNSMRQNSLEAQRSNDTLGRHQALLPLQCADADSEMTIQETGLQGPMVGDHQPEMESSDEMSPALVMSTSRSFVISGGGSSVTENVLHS

[18] = molecular target: T6, Extracellular calcium-sensing receptor (Rattus norvegicus, UniProt P48442); assay: as §3; format: functional, cell-based
T6 sequence (P48442 whole entry): T5 sequence (whole entry)

[19] = AUC in CD rat systemic circulation at 10 mg/kg, po administered via gavage; format: ADME, organism-based
[20] = Protein binding in CD rat plasma at 10 mg/kg, administered via gavage; format: ADME, organism-based; conditions: po, read-out: PPB (converted)

| %max [1] [%] | EC50 ([2]; read-out: pEC50 (converted)) [µM] | half-life at 10 µM [3] [h] | Structure (SMILES) | other results |
| --- | --- | --- | --- | --- |
| 96 | 0.1 | 4.3 | C[C@@H](N[C@H]1CCN(c2ccc(C(=O)N[C@H](CCCCN)C(=O)O)cc2)C1)c1cccc2ccccc12 |  |
| 96 | 0.00501 | 7.8 | C[C@@H](N[C@H]1CCN(c2ccc(C(=O)NCCn3cnc(C(=O)O)c3C(=O)O)cc2)C1)c1cccc2ccccc12 | dose excreted [4]: 54%; Cmax [5]: 6 ng/mL; Cmax [6]: < 4 ng/mL |
| 84 | 0.0126 |  | C[C@@H](N[C@H]1CCN(c2ccc(S(=O)(=O)NCCN(C)C)cc2)C1)c1cccc2ccccc12 |  |
| 101 | 0.00794 | 3.4 | C[C@@H](N[C@H]1CCN(c2ccc(C(=O)NCCNC(CO)(CO)CO)cc2)C1)c1cccc2ccccc12 |  |
| 83 | 0.126 | > 12 | C[C@@H](N[C@H]1CCN(c2ccc(C(=O)NCC[N+](C)(C)C)cc2)C1)c1cccc2ccccc12.[Cl-] | Cmax [7]: 154 ng/mL; Cmax [8]: 164 ng/mL |
| 84 | 0.158 | > 12 | C[C@@H](N[C@H]1CCN(c2ccc(C(=O)O)cc2)C1)c1cccc2ccccc12 |  |
| 79 | 0.398 | 9.1 | C[C@@H](N[C@H]1CCN(c2ccc(C(=O)N[C@H](CC(=O)O)C(=O)O)cc2)C1)c1cccc2ccccc12 | dose excreted [4]: 65%; Cmax [5]: 12 ng/mL; Cmax [6]: 9 ng/mL |
| 80 | 0.0398 | > 12 | C[C@@H](N[C@H]1CCN(c2ccc(C(=O)NC(CO)(CO)CO)cc2)C1)c1cccc2ccccc12 |  |
| 75 | 0.0126 |  | C[C@@H](N[C@H]1CCN(c2ccc(C(=O)NCCN)cc2)C1)c1cccc2ccccc12 |  |
| 127 | 0.00794 |  | C[C@@H](N[C@H]1CCN(c2ccc(S(=O)(=O)NCCn3cnc(C(=O)O)c3C(=O)O)cc2)C1)c1cccc2ccccc12 |  |
| 85 | 0.0398 | 0.8 | C[C@@H](N[C@H]1CCN(c2ccc(C(=O)NCCS(=O)(=O)O)cc2)C1)c1cccc2ccccc12 |  |
| 69 | 0.0794 |  | C[C@@H](N[C@H]1CCN(c2ccc(C(=O)NCC(=O)O)cc2)C1)c1cccc2ccccc12 |  |
| 92 | 0.0158 | 8 | C[C@@H](N[C@H]1CCN(c2ccc(C(=O)NCCCCNC(CO)(CO)CO)cc2)C1)c1cccc2ccccc12 | Cmax [5]: 540 ng/mL; Cmax [6]: 440 ng/mL |
| 84 to 93 |  | > 12 | C[C@@H](N[C@H]1CCN(c2ccc(C(=O)NCCCN3CCC(C(=O)O)CC3)cc2)C1)c1cccc2ccccc12 | AUC [9]: 265 ng·h/mL; dose excreted [4]: 86.3%; EC50 ([2]; read-out: EC50): 0.05 µM; fCmax [10]: 3 ng/mL; fCmax [11]: 7 nM; Cmax [5]: 57 ng/mL; solubility [12]: > 1000 µg/mL; solubility [13]: > 1000 µg/mL; solubility [14]: > 1000 µg/mL; EC50 [15]: 0.251 µM; %max [16]: 62%; %max [17]: 66%; EC50 [18]: 0.316 µM; AUC [19]: 266 ng·h/mL; Cmax [6]: 48 ng/mL; fraction unbound [20]: 0.07 |
| 87 | 0.02 | > 12 | C[C@@H](N[C@H]1CCN(c2ccc(S(N)(=O)=O)cc2)C1)c1cccc2ccccc12 |  |
| 83 | 0.0398 | > 12 | C[C@@H](N[C@H]1CCN(c2ccc(S(=O)(=O)NCC(=O)O)cc2)C1)c1cccc2ccccc12 | Cmax [7]: 317 ng/mL; Cmax [8]: 1120 ng/mL |
| 79 | 1.58 |  | C[C@@H](N[C@H]1CCN(c2ccc(S(=O)(=O)NC(=O)CC(=O)O)cc2)C1)c1cccc2ccccc12 |  |
| 70 | 3.16 |  | C[C@@H](N[C@H]1CCN(c2ccc(P(=O)(O)O)cc2)C1)c1cccc2ccccc12 |  |
| 74 | 0.501 | 10.5 | C[C@@H](N[C@H]1CCN(c2ccc(S(=O)(=O)NC(=O)CCC(=O)O)cc2)C1)c1cccc2ccccc12 |  |
